# Laboratory results taken from patent publication US12297218B2, “Complex comprising a PSMA-targeting compound linked to a lead or thorium radionuclide” (Sciencons AS, priority 2017, dated 2025).
# Experiments:
# [1] = test system: C4-2 PSMA-positive xenografts; experiment: Biodistribution of radiolabelled ligands after intravenous injection in nude mice with C4-2 xenografts; details: for Tumor-to-kidney ratio / Kidney uptake / Tumor uptake: average; for Tumor-to-kidney ratio: 1-hour point after administration; for Kidney uptake / Tumor uptake: 4 hours after injection
# Experimental: Each group usually consisted of three mice. […] Approximately 16 kBq of ^224Ra/^212Pb was injected in each animal, i.e., approximately 0.2 nmol of ligand per mouse. Animals were given anaesthesia and sacrificed by cervical dislocation followed by dissection and harvesting of tissue-, blood- and urine samples. The samples were weighed and counted on a gamma counter.
# Three mice in each group. […] The molar concentration was the same for both products, i.e., 12.5 nmol per MBq. Approximately 16 kBq of ^224Ra/^212Pb was injected in each animal, i.e., approximately 0.2 nmol of ligand per mouse. Animals were given anaesthesia and sacrificed by cervical dislocation followed by dissection and harvesting of tissue-, blood- and urine samples. The samples were weighed and counted on a gamma counter.
# Methods: Tumor and kidney uptake of ^212Pb-labeled p-SCN-Bn-TCMC-PSMA ligand 1 and ^177Lu-labeled PSMA-617 was compared at 1 hours and 4 hours after administration of the products by intravenous injection into nude mice with C4-2 xenografts as described in Example 9.
# [2] = test system: C4-2 PSMA positive human prostate cells; experiment: Comparative therapy experiment in nude mice with C4-2 xenografts; format: in vivo; details: for Median survival: 52 MBq ^177Lu-PSMA-617 or 320 kBq ^212Pb-p-SCN-Bn-TCMC-PSMA ligand 1
# Experimental: Male nude mice were inoculated in the flanks with C4-2 PSMA positive human prostate cells and 2 weeks later when tumors were 5-7 mm in diameters. Groups of 8 animals each received saline, 52 MBq of ^177Lu-PSMA-617 or 320 kBq of ^212Pb-p-SCN-Bn-TCMC-PSMA ligand 1. Animals were sacrificed when tumor size reached 20 mm due to animal welfare requirements. […] For ^212Pb the effective half-life was assumed to be 10.6 h, 10% of injected dose per gram decays in tumor and 100% of radiation in a tumor is absorbed in the tumor, 100% retention of ^212Pb and daughters in the tumors and 8 MeV radiation energy per decay. The tumor dosimetry for the injected activities gave on average 35.9 Gy to tumors for ^177Lu-PSMA-617 and 2.06 Gy to tumors for ^212Pb-p-SCN-Bn-TCMC-PSMA ligand 1 groups respectively.
# PC3 PIP model = details: typical, mouse xenografts, other researchers; cited from earlier work
# C4-2 cells = experiment: Prostate cancer cell binding of ligands labeled with ^212Pb; set-up: species or system human
# Experimental: the cell binding fractions measured by adding about 1 ng of radioligand to 0.2 ml of C4-2 cells (5×10^7 cells per ml) in a 5 ml test tube and incubate for 1 h before measuring applied activity, wash cells 3 times with 0.5 ml 0.5% bovine serum albumin in DPBS and thereafter recount the washed cell pellet. […] Nonspecific binding was measured by blocking the cells with excess 10 μg/ml of unlabelled ligand before adding radioligand.
# PSMA-positive xenografts = experiment: Biodistribution of single targeting solution (purified ^212Pb-p-SCN-Bn-TCMC-PSMA ligand 1) in mice with PSMA-positive xenografts; format: in vivo
# Experimental: Each group usually consisted of three mice. The ^212Pb labelling was above 92% for the products.
# Using a ^212Pb/^224Ra solution for reaction with p-SCN-Bn-TCMC-PSMA ligand 1 as described, purified ^212Pb-p-SCN-Bn-TCMC-PSMA ligand 1 was purified using a Sephadex G-10 gel filtration column and about 30 kBq and 300 ng of the purified radioligand product was injected per animal. […] The tumor-to-tissue ratios (Table 4) indicates suitability for radioligand targeting with ^212Pb.
compound,measurement,setting,value
"O=C([O-])CN1CCN(CC(=O)[O-])CCN(CC(=O)NCC2CCC(C(=O)N[C@@H](Cc3ccc4ccccc4c3)C(=O)NCCCC[C@H](NC(=O)N[C@@H](CCC(=O)O)C(=O)O)C(=O)O)CC2)CCN(CC(=O)[O-])CC1.[177Lu+3] (stereo partly shown) [^177Lu-PSMA-617, reference compound]",Tumor-to-kidney ratio,[1],0.17
same,Kidney uptake,[1],17.4 % ID/g
same,Tumor uptake,[1],13.6 % ID/g
same,PSMA-ligand uptake in the xenograft model used,"[1]; typical, mouse xenografts",10-15 % ID/g
same,Median survival,[2],20 days
same,PSMA-ligand uptake in PC3 PIP model,PC3 PIP model,30-40 % ID/g
"NC(=O)CN1CCN(CC(N)=O)CCN(CC(N)=O)C(Cc2ccc(NC(=S)NC[C@H]3CC[C@H](C(=O)N[C@@H](Cc4ccc5ccccc5c4)C(=O)NCCCC[C@H](NC(=O)N[C@@H](CCC(=O)O)C(=O)O)C(=O)O)CC3)cc2)CN(CC(N)=O)CC1 (stereo partly drawn) [p-SCN-Bn-TCMC-PSMA ligand 1, (((1S)-1-carboxy-5-((2S)-3-(naphthalen-2-yl)-2-((1r,4S)-4-((3-(4-((1,4,7,10-tetrakis(2-amino-2-oxoethyl)-1,4,7,10-tetraazacyclododecan-2-yl)methyl)phenyl)thioureido)methyl)cyclohexane-1-carboxamido)propanamido)pentyl)carbamoyl)-L-glutamic acid; trifloroacetic acid (1:4)]",Difference in cell-binding between radiolabelled p-SCN-Bn-TCMC-PSMA ligand 1 and PSMA-617,C4-2 cells,No significant difference
NC(=O)CN1CCN(CC(N)=O)CCN(CC(N)=O)C(Cc2ccc(NC(=S)NCC3CCC(C(=O)NC(Cc4ccc5ccccc5c4)C(=O)NCCCCC(NC(=O)NC(CCC(=O)O)C(=O)O)C(=O)O)CC3)cc2)CN(CC(N)=O)CC1.[212Pb+2] (stereo not shown) [^212Pb-p-SCN-Bn-TCMC-PSMA ligand 1],"^212Pb-p-SCN-Bn-TCMC-PSMA ligand 1 to PSMA-617 ratio, blood",[1]; 4 h after injection,1.21
same,"^212Pb-p-SCN-Bn-TCMC-PSMA ligand 1 to PSMA-617 ratio, kidneys",[1]; 4 h after injection,0.20
same,"^212Pb-p-SCN-Bn-TCMC-PSMA ligand 1 to PSMA-617 ratio, liver",[1]; 4 h after injection,2.67
same,"^212Pb-p-SCN-Bn-TCMC-PSMA ligand 1 to PSMA-617 ratio, spleen",[1]; 4 h after injection,0.71
same,"^212Pb-p-SCN-Bn-TCMC-PSMA ligand 1 to PSMA-617 ratio, tumor","[1]; 4 h after injection, ^224Ra/^212Pb solution",1.35
same,Tumor-to-kidney ratio,[1],0.40
same,Kidney uptake,[1],8.1 % ID/g
same,Tumor uptake,[1],13.9 % ID/g
same,Median survival,[2],> 30 days
same,Radiobiological effectiveness (RBE) vs ^177Lu-PSMA-617,[2]; C4-2 xenografts,at least 17
same,Survival at day 30 after treatment,[2]; groups of 8,75%
same,"Tumor to tissue ratio, Tumor/Femur",PSMA-positive xenografts; 1 h,30.4
same,"Tumor to tissue ratio, Tumor/blood",PSMA-positive xenografts; 1 h,14.9
same,"Tumor to tissue ratio, Tumor/kidneys",PSMA-positive xenografts; 1 h,0.41
same,"Tumor to tissue ratio, Tumor/muscle",PSMA-positive xenografts; 1 h,42.6
same,"Tumor to tissue ratio, Tumor/Femur",PSMA-positive xenografts; 2 h,39.7
same,"Tumor to tissue ratio, Tumor/blood",PSMA-positive xenografts; 2 h,29.4
same,"Tumor to tissue ratio, Tumor/kidneys",PSMA-positive xenografts; 2 h,0.62
same,"Tumor to tissue ratio, Tumor/muscle",PSMA-positive xenografts; 2 h,72.1
same,"Tumor to tissue ratio, Tumor/Femur",PSMA-positive xenografts; 4 h,24.8
same,"Tumor to tissue ratio, Tumor/blood",PSMA-positive xenografts; 4 h,30.7
same,"Tumor to tissue ratio, Tumor/kidneys",PSMA-positive xenografts; 4 h,1.54
same,"Tumor to tissue ratio, Tumor/muscle",PSMA-positive xenografts; 4 h,61.5
same,"Tumor to tissue ratio, Tumor/Femur",PSMA-positive xenografts; 8 h,19.8
same,"Tumor to tissue ratio, Tumor/blood",PSMA-positive xenografts; 8 h,112.7
same,"Tumor to tissue ratio, Tumor/kidneys",PSMA-positive xenografts; 8 h,3.60
same,"Tumor to tissue ratio, Tumor/muscle",PSMA-positive xenografts; 8 h,366.2
same,"Biodistribution, Bladder","PSMA-positive xenografts; Bladder, 8 h",0.26 % ID/g
same,"Biodistribution, Blood",PSMA-positive xenografts; 2 h,0.54 % ID/g
same,"Biodistribution, Blood",PSMA-positive xenografts; 4 h,0.46 % ID/g
same,"Biodistribution, Blood",PSMA-positive xenografts; 8 h,0.13 % ID/g
same,"Biodistribution, Brain",PSMA-positive xenografts; 1 h,0.61 % ID/g
same,"Biodistribution, Brain",PSMA-positive xenografts; 2 h,0.04 % ID/g
same,"Biodistribution, Brain",PSMA-positive xenografts; 4 h,0.07 % ID/g
same,"Biodistribution, Brain",PSMA-positive xenografts; 8 h,0.02 % ID/g
same,"Biodistribution, Femur",PSMA-positive xenografts; 1 h,0.87 % ID/g
same,"Biodistribution, Femur",PSMA-positive xenografts; 2 h,0.40 % ID/g
same,"Biodistribution, Femur",PSMA-positive xenografts; 4 h,0.57 % ID/g
same,"Biodistribution, Femur",PSMA-positive xenografts; 8 h,0.74 % ID/g
same,"Biodistribution, Heart",PSMA-positive xenografts; 1 h,0.78 % ID/g
same,"Biodistribution, Heart",PSMA-positive xenografts; 2 h,0.20 % ID/g
same,"Biodistribution, Heart",PSMA-positive xenografts; 4 h,0.52 % ID/g
same,"Biodistribution, Heart",PSMA-positive xenografts; 8 h,0.09 % ID/g
same,"Biodistribution, Large intestine",PSMA-positive xenografts; 1 h,0.25 % ID/g
same,"Biodistribution, Large intestine",PSMA-positive xenografts; 2 h,0.39 % ID/g
same,"Biodistribution, Large intestine",PSMA-positive xenografts; 4 h,0.18 % ID/g
same,"Biodistribution, Large intestine",PSMA-positive xenografts; 8 h,0.17 % ID/g
same,"Biodistribution, Lungs",PSMA-positive xenografts; 2 h,0.40 % ID/g
same,"Biodistribution, Lungs",PSMA-positive xenografts; 4 h,0.75 % ID/g
same,"Biodistribution, Lungs",PSMA-positive xenografts; 8 h,0.17 % ID/g
same,"Biodistribution, Muscle",PSMA-positive xenografts; 1 h,0.62 % ID/g
same,"Biodistribution, Muscle",PSMA-positive xenografts; 2 h,0.22 % ID/g
same,"Biodistribution, Muscle",PSMA-positive xenografts; 4 h,0.23 % ID/g
same,"Biodistribution, Muscle",PSMA-positive xenografts; 8 h,0.04 % ID/g
same,"Biodistribution, Prostate","PSMA-positive xenografts; Prostate, 2 h",3.80 % ID/g
same,"Biodistribution, Salivary gland",PSMA-positive xenografts; 1 h,0.72 % ID/g
same,"Biodistribution, Salivary gland",PSMA-positive xenografts; 2 h,0.32 % ID/g
same,"Biodistribution, Salivary gland",PSMA-positive xenografts; 4 h,0.34 % ID/g
same,"Biodistribution, Salivary gland",PSMA-positive xenografts; 8 h,0.15 % ID/g
same,"Biodistribution, Skin",PSMA-positive xenografts; 1 h,1.70 % ID/g
same,"Biodistribution, Skin",PSMA-positive xenografts; 2 h,0.47 % ID/g
same,"Biodistribution, Skin",PSMA-positive xenografts; 4 h,0.42 % ID/g
same,"Biodistribution, Skin",PSMA-positive xenografts; 8 h,0.23 % ID/g
same,"Biodistribution, Skull",PSMA-positive xenografts; 1 h,0.77 % ID/g
same,"Biodistribution, Skull",PSMA-positive xenografts; 2 h,0.38 % ID/g
same,"Biodistribution, Skull",PSMA-positive xenografts; 4 h,0.37 % ID/g
same,"Biodistribution, Skull",PSMA-positive xenografts; 8 h,0.63 % ID/g
same,"Biodistribution, Small intestine",PSMA-positive xenografts; 1 h,0.34 % ID/g
same,"Biodistribution, Small intestine",PSMA-positive xenografts; 2 h,0.23 % ID/g
same,"Biodistribution, Small intestine",PSMA-positive xenografts; 4 h,0.30 % ID/g
same,"Biodistribution, Small intestine",PSMA-positive xenografts; 8 h,0.08 % ID/g
same,"Biodistribution, Spleen",PSMA-positive xenografts; 2 h,0.44 % ID/g
same,"Biodistribution, Spleen",PSMA-positive xenografts; 4 h,0.54 % ID/g
same,"Biodistribution, Spleen",PSMA-positive xenografts; 8 h,0.36 % ID/g
same,"Biodistribution, Stomach",PSMA-positive xenografts; 1 h,0.16 % ID/g
same,"Biodistribution, Stomach",PSMA-positive xenografts; 2 h,0.22 % ID/g
same,"Biodistribution, Stomach",PSMA-positive xenografts; 4 h,0.10 % ID/g
same,"Biodistribution, Stomach",PSMA-positive xenografts; 8 h,0.09 % ID/g
same,"Biodistribution, Testes",PSMA-positive xenografts; 2 h,0.56 % ID/g
same,"Biodistribution, Testes",PSMA-positive xenografts; 4 h,0.38 % ID/g
same,"Biodistribution, Testes",PSMA-positive xenografts; 8 h,0.12 % ID/g
